The text below walks through data of PMC12400753 (Respiratory Research, 2025).

For orientation: pIC50 means −log10 of the IC50, conventionally taken in molar units.

The target of assay [1] is LPAR1 (Homo sapiens, UniProt Q92633). Kind of assay: LPA-induced calcium mobilization in transiently transfected HEK293T cells. Type of assay: cell-based. More on the design: host or cells: HEK293T. The following applies: 3 h preincubation; LPA at EC80 5 µM. The method, then: We had previously assessed selectivity against LPAR2 and 3 [11]. […] Human LPAR1-6 plasmids were each transiently transfected into HEK293T cells and the EC80 (effective concentration producing 80% maximal effect) for LPA activation empirically determined. Selectivity was then tested in a concentration response paradigm using a 3 h preincubation followed by LPA-induced calcium mobilization.
Plasmids containing human LPAR1-6 were obtained from Origene (Rockville, MD) and maxiprepped at Eton Biosciences (San Diego, CA). Transfection mix was prepared by adding Fugene 6 transfection mix to serum free media and 0.1 µg plasmid. After a 20 m incubation, HEK293T cells (ATCC, Manassas VA) were lifted with Accutase and added to the Fugene mix at a final concentration of 0.5 × 10^4 cells/well. Cells were then plated on black clear bottom 96-well plates and incubated overnight in a 37 °C, 5% CO2 incubator. […] During the last hour of incubation, media was removed and replaced with Fluo-4 NW calcium assay dye prepared as per manufacturer’s recommendations in assay buffer. Agonist plates containing LPA were prepared for individual receptor subytpes using their respective EC80. Calcium mobilization was measured as per manufacturer’s directions on a Flexstation 3 (Molecular Devices, San Jose, CA).
(A change in cytosolic calcium serves as a functional read-out for many receptors and channels.)

The test system of assay [2] is primary human lung fibroblasts. Kind of assay: LPA-induced COL1A1 expression (immunocytochemistry). The following applies: 1 µM LPA 8 h; compound overnight; read-out: IC50 inhibition of COL1A1 expression. Type of assay: cell-based. As for the experimental part: COL1A1 assay: Primary human lung fibroblasts were plated in a 96-well plate and allowed to adhere. […] The next day, cells were treated with 1 µM LPA and incubated for 8 h. After incubation in LPA, cells were immunostained for COL1A1. Cells were fixed in formalin for 10 min, washed 3 x with PBS, incubated in collagen 1A1 antibody (1:250 in blocking buffer, 0.1% Triton X-100 in PBS, 2 h), and washed 3 x with PBS. Secondary antibody solution (1:500) and Hoechst (1:2000) were added for 1 h, washed 3 x in PBS then imaged on a Nikon A1R confocal microscope at 10x magnification except human lung fibroblasts which were imaged at 4x. Collagen area was quantified with ImageJ and normalized to Hoechst per image.

The test system of assay [3] is human precision cut lung slices from donors with pulmonary fibrosis. Kind of assay: Fibrotic marker mRNA (qPCR) in cryopreserved PCLS from donors with pulmonary fibrosis. It counts as cell-based. The following applies: PIPE-791, 6 days, 6 donors. An excerpt:
Slices were snap frozen and processed for transcript analysis by quantitative PCR. […] Concurrently, we evaluated two well-established, clinical stage antifibrotic mechanisms in this setting: an αvβ1/6 inhibitor (bexotegrast, PLN-74809) and a PDE4B inhibitor (nerandomilast, BI 1015550).
Precision cut lung slices were obtained from Anabios (San Diego, CA) and collected in accordance with their ethics policy (https://anabios.com/ethics-statement/). Donor demographics are available in Additional File 1. Slices were thawed as per vendor instructions. Briefly, PCLS were thawed at 37 °C then transferred to media consisting of DMEM/F12, Antibiotic-Antimytotic, and Penicillin-Streptomycin. PCLS were gently rinsed then transferred to a larger dish. A small tissue sample was excised with a scalpel for immunohistochemistry and qPCR characterization. […] Final concentration of DMSO was 0.1%. Media and compound were replaced every two days for a total of 6 days. At the end of the experiment, slices were collected and snap frozen. Quantitative PCR: RNA was extracted using RNEasy columns. RNA was reverse transcribed using qScript XLT per manufacturer’s instructions. Genes of interest were assessed by qPCR using Perfecta SYBR Green on a StepOne Plus Thermocycler (ABI). Parameters were as follows: 95 °C 30 s, then 45 cycles of 95 °C for 5 s and 60 °C for 30 s.
Background: Quantitative PCR measures a nucleic acid by following its amplification.

Assay [4] concerns mouse alveolar macrophages. Kind of assay: IL-1β release of alveolar macrophages from orally dosed mice, ex vivo LPS. The following applies: 3 mg/kg oral, 24 h before isolation; with and without ex vivo LPS. Type of assay: in vivo. The method, then: 1.5 mL DPBS was injected into lungs and BAL fluid aspirated. Cells were plated in at 40,000 cells/well and stimulated first with 500 ng/mL LPS for 4 h then and 1 µM LPA for an additional hour at 37 °C. Plates were spun down and supernatant analyzed for IL-1β by ELISA.

For assay [5], the target named is T1, LPAR1 (Mus musculus, UniProt P61793).
T1 construct: from tissue; host or cells: lung of female C57BL6/N mice, dosed in vivo
Kind of assay: In vivo lung receptor occupancy with [3H]-PIPE-497. The following applies: for pEC50: read-out: lung receptor occupancy EC50 (plasma concentration). The method, then: [^3H]-PIPE-497 was diluted to 9.8 µCi/mL in saline and administered via IV injection to the lateral tail vein at a dose volume of 5 mL/kg. Five minutes following radioligand administration, mice were euthanized by decapitation, trunk blood collected into K3EDTA tubes and stored on wet ice, each lung rapidly dissected, weighed and placed into a 5 mL polypropylene tube. Tissues were diluted with a 10x volume of ice-cold binding buffer (50 mM HEPES, 100 mM NaCl2, 2 mM EDTA). Lungs were then homogenized (25,000 rpm, 7 s). 300 µL of homogenate was filtered over Whatman GF/B filters (GE Life Sciences, Marlborough, MA) which had been pre-wetted with 0.5% polyethyleneimine prior to loading onto the Hoefer vacuum manifold. Filters were washed once by applying 3 mL ice-cold wash buffer (50 mM Tris, 154 mM NaCl, 0.05% Tween 20) to the manifold for a total of 2 washes. […] Washed filters were removed from the manifold and air dried. Following completion of filtration of all samples, uncapped scintillation vials were placed into an oven (~ 40–50 °C) for ~ 30 min to ensure complete drying. Five (5) mL Ultima Gold F scintillation fluid was added to each tube. Tubes were capped, gently agitated, and dark equilibrated for 30 min then read on a Beckman LS6500 liquid scintillation counter for tritium disntegrations per minute measurements. After all samples were collected, dissected, and filtered, the previously collected blood in K3EDTA tubes was centrifuged (1450 x g, 10 min, 4 °C) to separate plasma.

The subject of assay [6] is primary human lung fibroblasts. Kind of assay: TGFβ1- or LPA-induced myofibroblast transformation (αSMA, COL1A1). Type of assay: cell-based. The following applies: PIPE-791 1 µM. As for the experimental part:
TGFβ1 was used at 5 ng/mL. In addition to COL1A1 immunostaining, cells were co-immunostained with aSMA followed by a goat anti-rabbit Alexa647 secondary antibody.

[7] abbreviates: once per day for 4 days (steady state), 3 h after last dose.

pEC50, pIC50: −log10 of the molar value. Read-outs that look alike come from different tables or passages of the source.

T1 sequence (P61793 whole entry): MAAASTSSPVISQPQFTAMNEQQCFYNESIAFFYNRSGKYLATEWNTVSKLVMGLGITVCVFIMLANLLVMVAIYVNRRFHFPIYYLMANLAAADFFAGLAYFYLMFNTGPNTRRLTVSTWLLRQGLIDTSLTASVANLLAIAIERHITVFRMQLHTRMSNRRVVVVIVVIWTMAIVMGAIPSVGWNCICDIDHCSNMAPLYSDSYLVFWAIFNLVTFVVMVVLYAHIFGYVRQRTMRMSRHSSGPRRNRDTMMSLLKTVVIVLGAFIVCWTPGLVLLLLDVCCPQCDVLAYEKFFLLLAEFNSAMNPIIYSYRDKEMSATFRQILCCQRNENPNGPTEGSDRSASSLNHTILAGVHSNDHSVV
Sequence of LPAR1 (Homo sapiens, UniProt Q92633) (Q92633 whole entry): as the sequence (P61793 whole entry) above, with A4I, S8I, Q22P, Y40H, V61I, D193E, H194N, V269I, N331S, N335T counted along it

With `COc1ccc(NC(=O)N(c2ccccc2C(C)C)C2CCC(C(=O)O)CC2)c(OC(F)F)n1` (stereo not shown) [PIPE-791], the results for the negative logarithm of the IC50 (pIC50) (on LPAR1 [1]; in assay [2]) were 8.10 and 8.96, respectively. Further, the “COL1A1 mRNA expression vs vehicle” value in assay [3] was “significantly less expression”. Besides, the “COL3A1 mRNA expression vs vehicle” value in assay [3] is “significantly less expression”. Moreover, in assay [3], the “LPAR1 mRNA levels vs vehicle” value was “not significantly affected”. Also, the “SERPINE1 mRNA expression vs vehicle” value in assay [3] is “significantly less expression”. Moreover, the “TIMP1 mRNA expression vs vehicle” value in assay [3] is listed as “significantly less expression”. The “IL-1β levels of isolated alveolar macrophages” value in assay [4] is given as “comparable to baseline”. The “increase in potency when dosed 3 versus 24 h prior to radioligand” value at LPAR1 [5] (in vivo receptor occupancy) was 20 fold. Besides, the results for the “lung receptor occupancy ED50” value at LPAR1 [5] (setting [7]), on LPAR1 [5] (single oral dose 3 h prior to radioligand) and on LPAR1 [5] (single oral dose 24 h prior to radioligand) were 0.1 mg/kg, 0.5 mg/kg and 0.09 mg/kg, respectively. Besides, the pEC50 on LPAR1 [5] (setting [7]) was 7.74; at LPAR1 [5] (single oral dose, 3 h), 7.10; at LPAR1 [5] (single oral dose, 24 h), 8.40. In addition, the EC90 at LPAR1 [5] (once per day for 4 days (steady state), read-out: lung receptor occupancy EC90 (total plasma concentration)) turned out to be 50 nM. Moreover, the “radiotracer displacement (LPAR1 receptor occupancy) in lung” value was “Significant radiotracer displacement (LPAR1 receptor occupancy) was observed at 3 mg/kg” on LPAR1 [5] (single oral dose, 3 h post dose); “significant occupancy was observed at both 0.3 and 3 mg/kg” on LPAR1 [5] (single oral dose, 24 h post dose). For the same compound, the COL1A1 induction entry in assay [6] (LPA stimulation) and in assay [6] (TGFβ1 stimulation) was “significantly inhibited” throughout. The αSMA expression entry in assay [6] (LPA stimulation) and in assay [6] (TGFβ1 stimulation) was “significantly inhibited” in each case.
